ChEMBL document CHEMBL5046278, “Synthesis and Evaluation of Novel Tetrahydronaphthyridine CXCR4 Antagonists with Improved Drug-like Profiles” (J Med Chem, 2022)

Experiments:
[1] = AUC(0 to 8 h) in mouse plasma at 3 mg/kg, iv measured at 24 hrs by LC-MS/MS analysis; format: ADME, organism-based; set-up: route intravenous, time 24 hrs, dose 3 mg/kg; conditions: in vivo
[2] = AUC(0 to 8 h) in mouse plasma at 30 mg/kg, po measured at 24 hrs by LC-MS/MS analysis; format: ADME, organism-based; set-up: route oral, time 24 hrs, dose 30 mg/kg; conditions: in vivo
Mu-type opioid receptor = Mu-type opioid receptor (Homo sapiens, UniProt P35372); assay: Inhibition of mu opioid receptor (unknown origin)
[3] = target: T1, Muscarinic acetylcholine receptor M2 (Homo sapiens, UniProt P08172); assay: Inhibition of M2 mAChR receptor (unknown origin)
T1 sequence (P08172 whole entry): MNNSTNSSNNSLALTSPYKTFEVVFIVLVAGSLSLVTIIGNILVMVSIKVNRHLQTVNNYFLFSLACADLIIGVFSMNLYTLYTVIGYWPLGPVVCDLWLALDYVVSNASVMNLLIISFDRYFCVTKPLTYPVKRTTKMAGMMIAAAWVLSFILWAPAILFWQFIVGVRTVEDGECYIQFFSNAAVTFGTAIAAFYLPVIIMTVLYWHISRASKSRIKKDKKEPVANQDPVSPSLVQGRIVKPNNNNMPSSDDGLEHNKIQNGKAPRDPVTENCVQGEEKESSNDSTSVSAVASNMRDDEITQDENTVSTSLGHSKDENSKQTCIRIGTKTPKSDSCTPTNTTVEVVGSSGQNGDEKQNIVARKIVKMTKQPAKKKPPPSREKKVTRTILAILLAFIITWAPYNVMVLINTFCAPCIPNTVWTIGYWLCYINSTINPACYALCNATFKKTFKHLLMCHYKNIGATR

[4] = Half life in mouse at 3 mg/kg, iv measured after 8 hrs by LC-MS/MS analysis; format: ADME, organism-based; conditions: in vivo
[5] = AUC(0 to 8 h)in mouse plasma at 3 mg/kg, po measured at 24 hrs by LC-MS/MS analysis; format: ADME, organism-based; set-up: route oral, dose 3 mg/kg, time 24 hrs; conditions: in vivo
[6] = Volume of distribution in mouse at 3 mg/kg, measured at 24 hrs by LC-MS analysis; format: ADME, organism-based; conditions: in vivo
[7] = Oral bioavailability in mouse at 3 mg/kg measured at 24 hrs by LC-MS/MS analysis; format: ADME, organism-based; conditions: in vivo
[8] = target: Kappa-type opioid receptor (Homo sapiens, UniProt P41145); assay: Inhibition of kappa opioid receptor (unknown origin)
[9] = target: T2, Alpha-2A adrenergic receptor (Homo sapiens, UniProt P08913); assay: Inhibition of alpha 2A adrenergic receptor (unknown origin)
T2 sequence (P08913 whole entry): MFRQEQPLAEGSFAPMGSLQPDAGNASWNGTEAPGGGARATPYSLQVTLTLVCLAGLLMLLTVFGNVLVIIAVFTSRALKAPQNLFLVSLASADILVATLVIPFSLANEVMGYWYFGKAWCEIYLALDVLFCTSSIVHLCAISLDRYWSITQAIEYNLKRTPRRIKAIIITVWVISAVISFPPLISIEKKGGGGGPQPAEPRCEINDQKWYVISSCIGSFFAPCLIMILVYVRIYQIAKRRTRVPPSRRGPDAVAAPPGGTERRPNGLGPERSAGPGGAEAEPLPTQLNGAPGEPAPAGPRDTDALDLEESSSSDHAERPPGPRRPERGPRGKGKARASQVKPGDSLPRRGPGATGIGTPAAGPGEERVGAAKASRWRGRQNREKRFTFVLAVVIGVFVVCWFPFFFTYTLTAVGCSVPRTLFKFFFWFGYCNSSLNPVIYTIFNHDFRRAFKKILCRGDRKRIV

D(2) dopamine receptor = D(2) dopamine receptor (Homo sapiens, UniProt P14416); assay: Inhibition of dopamine D2 receptor (unknown origin)
[10] = Drug concentration in mouse plasma at 30 mg/kg, po measured at 12 hrs by LC-MS analysis; format: ADME, organism-based
[11] = target: Neuronal acetylcholine receptor subunit alpha-7 (Homo sapiens, UniProt P36544); assay: Inhibition of alpha7 nicotinic acetylcholine receptor (unknown origin)
[12] = Oral bioavailability in mouse at 30 mg/kg measured at 24 hrs by LC-MS/MS analysis; format: ADME, organism-based; conditions: in vivo
[13] = Metabolic stability in rat liver microsomes assessed compound remaining measured after 10 mins in presence of NADPH; format: ADME, Microsome; conditions: read-out: Stability
[14] = target: Voltage-gated inwardly rectifying potassium channel KCNH2 (Homo sapiens, UniProt Q12809); assay: Inhibition of human ERG by [3H]]Astemizole binding assay; format: toxicity
[15] = Antagonist activity at human CXCR4 receptor expressed in CCRF-CEM cells assessed as inhibition of CXCL12-induced calcium release by calcium flux assay; format: cell-based
Cytochrome P450 2D6 = Cytochrome P450 2D6 (Homo sapiens, UniProt P10635); assay: Inhibition of recombinant human CYP2D6 using AMMC as substrate preincubated for 30 mins followed by substrate addition measured after 45 mins by fluorescence based assay; format: ADME
[16] = target: T3, Alpha-2C adrenergic receptor (Homo sapiens, UniProt P18825); assay: Inhibition of alpha 2C adrenergic receptor (unknown origin)
T3 sequence (P18825 whole entry): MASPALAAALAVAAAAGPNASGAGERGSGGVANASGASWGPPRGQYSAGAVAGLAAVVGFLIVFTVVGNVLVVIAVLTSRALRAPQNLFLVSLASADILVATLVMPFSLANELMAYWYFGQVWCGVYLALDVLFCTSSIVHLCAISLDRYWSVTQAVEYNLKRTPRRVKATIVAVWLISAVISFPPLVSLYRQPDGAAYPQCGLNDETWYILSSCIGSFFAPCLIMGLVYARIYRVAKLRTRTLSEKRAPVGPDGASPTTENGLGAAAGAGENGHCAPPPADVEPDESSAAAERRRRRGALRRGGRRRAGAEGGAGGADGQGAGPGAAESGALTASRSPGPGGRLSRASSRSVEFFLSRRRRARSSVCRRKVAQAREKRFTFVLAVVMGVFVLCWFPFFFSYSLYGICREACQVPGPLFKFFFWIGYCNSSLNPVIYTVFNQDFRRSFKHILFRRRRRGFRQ

[17] = Permeability of compound at pH 5.5 incubated for 4 hrs by PAMPA assay; format: ADME; conditions: read-out: permeability
[18] = Permeability of compound at pH 7.4 incubated for 4 hrs by PAMPA assay; format: ADME; conditions: read-out: permeability
[19] = Metabolic stability in human liver microsomes assessed compound remaining measured after 10 mins in presence of NADPH; format: ADME, Microsome; conditions: read-out: Stability
[20] = Metabolic stability in mouse liver microsomes assessed compound remaining measured after 10 mins in presence of NADPH; format: ADME, Microsome; conditions: read-out: Stability
[21] = system: Human immunodeficiency virus 1; assay: Antiviral activity against HIV-1 NL4-3(X4) pseudovirus infected in human TZM-bl cells assessed as reduction in viral infectivity measured after 48 hrs of postinfection by luminescence assay; format: functional, organism-based; conditions: Human immunodeficiency virus 1, NL4-3(X4)
[22] = Antagonist activity at mAChR (unknown origin) expressed in CCRF-CEM cells assessed as inhibition of calcium release by calcium flux assay; format: cell-based; conditions: Homo sapiens
[23] = system: Human immunodeficiency virus 1; assay: Antiviral activity against HIV-1 Z1800M E4.02 (R5) pseudovirus infected in human TZM-blcells assessed as reduction in viral infectivity measured after 48 hrs of postinfection by luminescence assay; format: functional, organism-based; conditions: Human immunodeficiency virus 1, Z1800M E4.02 (R5), TZM-bl
[24] = Cytotoxicity against human TZM-bl cells assessed as reduction in cell viability incubated for 4 hrs by […] assay; format: toxicity, cell-based; conditions: read-out: TC50

Sequence of D(2) dopamine receptor (P14416 whole entry): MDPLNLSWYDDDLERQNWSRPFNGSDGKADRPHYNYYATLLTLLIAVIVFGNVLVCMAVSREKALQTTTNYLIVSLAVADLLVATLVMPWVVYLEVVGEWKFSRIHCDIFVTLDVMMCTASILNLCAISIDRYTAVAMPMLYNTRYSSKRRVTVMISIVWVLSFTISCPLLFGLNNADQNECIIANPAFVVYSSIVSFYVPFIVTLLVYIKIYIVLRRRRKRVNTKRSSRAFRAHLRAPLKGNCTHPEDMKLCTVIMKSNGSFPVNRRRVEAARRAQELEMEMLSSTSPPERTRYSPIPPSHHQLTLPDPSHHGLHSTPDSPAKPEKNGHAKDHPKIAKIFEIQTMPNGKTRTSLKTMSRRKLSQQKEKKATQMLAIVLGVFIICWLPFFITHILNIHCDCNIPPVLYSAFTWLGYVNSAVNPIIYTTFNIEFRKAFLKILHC
Sequence of Voltage-gated inwardly rectifying potassium channel KCNH2 (Q12809 whole entry): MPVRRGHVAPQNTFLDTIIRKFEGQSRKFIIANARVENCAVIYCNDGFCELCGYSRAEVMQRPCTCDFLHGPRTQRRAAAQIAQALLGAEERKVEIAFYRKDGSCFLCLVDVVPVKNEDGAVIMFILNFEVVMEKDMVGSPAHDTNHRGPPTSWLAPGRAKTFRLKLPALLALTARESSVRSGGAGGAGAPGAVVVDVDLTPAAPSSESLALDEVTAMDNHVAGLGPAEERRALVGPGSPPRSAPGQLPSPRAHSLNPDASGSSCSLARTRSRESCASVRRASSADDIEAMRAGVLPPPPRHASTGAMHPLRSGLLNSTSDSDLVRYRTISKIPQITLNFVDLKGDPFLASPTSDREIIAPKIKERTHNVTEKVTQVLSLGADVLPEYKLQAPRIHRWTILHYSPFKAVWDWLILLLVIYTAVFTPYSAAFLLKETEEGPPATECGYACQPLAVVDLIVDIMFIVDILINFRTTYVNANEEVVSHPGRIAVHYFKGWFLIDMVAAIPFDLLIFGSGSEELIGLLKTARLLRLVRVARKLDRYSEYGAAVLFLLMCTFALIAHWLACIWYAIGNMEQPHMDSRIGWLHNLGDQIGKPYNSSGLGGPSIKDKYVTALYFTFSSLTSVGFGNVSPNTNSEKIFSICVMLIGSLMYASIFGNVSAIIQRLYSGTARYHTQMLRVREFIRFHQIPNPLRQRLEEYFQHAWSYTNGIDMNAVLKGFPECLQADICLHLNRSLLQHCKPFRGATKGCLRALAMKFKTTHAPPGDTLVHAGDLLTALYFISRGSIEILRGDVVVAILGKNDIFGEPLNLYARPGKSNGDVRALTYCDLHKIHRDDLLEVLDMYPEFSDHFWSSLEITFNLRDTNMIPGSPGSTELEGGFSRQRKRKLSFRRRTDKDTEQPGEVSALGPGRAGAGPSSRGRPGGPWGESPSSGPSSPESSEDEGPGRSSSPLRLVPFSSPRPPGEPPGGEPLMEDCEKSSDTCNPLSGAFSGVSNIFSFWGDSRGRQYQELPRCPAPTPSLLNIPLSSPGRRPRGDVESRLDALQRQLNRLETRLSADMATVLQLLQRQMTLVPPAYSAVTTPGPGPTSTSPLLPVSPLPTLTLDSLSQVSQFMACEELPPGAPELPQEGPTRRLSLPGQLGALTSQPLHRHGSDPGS
Sequence of Cytochrome P450 2D6 (P10635 whole entry): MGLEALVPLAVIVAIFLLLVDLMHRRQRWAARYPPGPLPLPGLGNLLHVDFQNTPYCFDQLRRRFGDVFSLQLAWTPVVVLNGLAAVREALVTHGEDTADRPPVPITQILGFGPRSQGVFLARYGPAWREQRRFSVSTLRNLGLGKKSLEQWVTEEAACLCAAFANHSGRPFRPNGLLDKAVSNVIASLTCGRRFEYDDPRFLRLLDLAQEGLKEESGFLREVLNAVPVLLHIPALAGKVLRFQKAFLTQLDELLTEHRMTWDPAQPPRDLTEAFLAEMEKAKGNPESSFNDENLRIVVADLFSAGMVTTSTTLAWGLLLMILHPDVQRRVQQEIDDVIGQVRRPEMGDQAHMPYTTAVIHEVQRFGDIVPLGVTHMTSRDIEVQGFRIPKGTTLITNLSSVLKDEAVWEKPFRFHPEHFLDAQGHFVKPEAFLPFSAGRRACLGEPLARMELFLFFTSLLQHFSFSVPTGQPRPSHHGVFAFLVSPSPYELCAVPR
Sequence of Mu-type opioid receptor (P35372 whole entry): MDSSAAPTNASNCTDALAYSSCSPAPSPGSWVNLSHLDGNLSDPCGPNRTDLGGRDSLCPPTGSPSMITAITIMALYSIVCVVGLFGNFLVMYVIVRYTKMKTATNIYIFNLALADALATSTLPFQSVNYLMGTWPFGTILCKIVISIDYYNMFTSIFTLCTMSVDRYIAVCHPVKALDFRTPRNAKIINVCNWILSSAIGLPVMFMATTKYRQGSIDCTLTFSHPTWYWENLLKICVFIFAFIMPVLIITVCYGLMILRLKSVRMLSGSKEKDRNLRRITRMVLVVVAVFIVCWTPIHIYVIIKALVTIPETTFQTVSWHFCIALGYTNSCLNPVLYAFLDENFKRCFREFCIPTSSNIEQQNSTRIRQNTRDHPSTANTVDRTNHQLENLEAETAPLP
Sequence of Kappa-type opioid receptor (P41145 whole entry): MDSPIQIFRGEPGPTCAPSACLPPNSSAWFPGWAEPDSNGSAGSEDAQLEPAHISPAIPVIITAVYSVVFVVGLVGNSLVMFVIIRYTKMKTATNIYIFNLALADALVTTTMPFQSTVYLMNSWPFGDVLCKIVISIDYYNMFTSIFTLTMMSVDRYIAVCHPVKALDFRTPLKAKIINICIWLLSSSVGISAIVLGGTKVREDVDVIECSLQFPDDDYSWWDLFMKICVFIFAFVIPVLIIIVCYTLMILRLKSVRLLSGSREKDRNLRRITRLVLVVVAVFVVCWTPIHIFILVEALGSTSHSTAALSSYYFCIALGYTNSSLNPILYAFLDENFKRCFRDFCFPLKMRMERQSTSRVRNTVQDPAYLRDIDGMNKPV
Sequence of Neuronal acetylcholine receptor subunit alpha-7 (P36544 whole entry): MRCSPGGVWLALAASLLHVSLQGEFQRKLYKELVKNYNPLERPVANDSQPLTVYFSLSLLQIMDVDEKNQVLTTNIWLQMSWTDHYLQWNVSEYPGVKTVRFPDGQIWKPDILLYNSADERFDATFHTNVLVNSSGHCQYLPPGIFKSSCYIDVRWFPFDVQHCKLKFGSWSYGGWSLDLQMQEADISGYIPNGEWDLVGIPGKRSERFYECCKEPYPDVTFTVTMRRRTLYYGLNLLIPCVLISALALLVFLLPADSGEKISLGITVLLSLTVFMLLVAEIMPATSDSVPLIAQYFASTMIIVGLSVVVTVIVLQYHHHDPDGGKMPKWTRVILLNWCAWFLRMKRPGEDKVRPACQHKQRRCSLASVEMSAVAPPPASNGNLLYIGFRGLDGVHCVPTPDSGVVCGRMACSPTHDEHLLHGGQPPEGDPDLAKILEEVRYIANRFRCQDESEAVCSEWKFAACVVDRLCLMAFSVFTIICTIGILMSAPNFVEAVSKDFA

Compound | IC50 (Mu-type opioid receptor) [µM] | IC50 [3] [µM] | IC50 [8] [µM] | IC50 [9] [µM] | IC50 (D(2) dopamine receptor) [µM] | IC50 [11] [µM] | remaining at 10 min [13] [%] | IC50 [14] [µM] | IC50 [15] [µM] | IC50 (Cytochrome P450 2D6) [µM] | IC50 [16] [µM] | Papp at 4 h [17] [×10⁻⁶ cm/s] | Papp at 4 h [18] [×10⁻⁶ cm/s] | remaining at 10 min [19] [%] | remaining at 10 min [20] [%] | IC50 [21] [µM] | IC50 [22] [µM] | IC50 [23] [µM] | CC50 at 4 h [24] [µM] | further results
NCCCCN(Cc1nc2ccccc2[nH]1)[C@H]1CCCc2cccnc21 [MAVORIXAFOR] | 12 | 7.5 | > 30 | > 30 | 4.1 | > 30 |  |  |  |  |  |  |  |  |  |  |  |  |  | AUC [1]: 415 h/ng/mL; AUC [2]: 101 h/ng/mL; half-life [4]: 3.09 h; AUC [5]: 35.1 h/ng/mL; Vd [6]: 32.2 L/kg; bioavailability [7]: 2.54%; concentration at 12 h [10]: 2.2 ng/mL; bioavailability [12]: 2.42%
NCCCCN(C[C@H]1Cc2ncccc2CN1)[C@H]1CCCc2cccnc21 | > 30 | 8.7 | 1.1 | 11 | 9.4 | 1.7 | 64 | 5.8 | 0.011 | 12 | 13 | 1.7 | 1.4 | 100 | 86 |  |  |  |  | 
c1cnc2c(c1)CN[C@@H](CN(CCCCN1CCOCC1)[C@H]1CCCc3cccnc31)C2 | > 30 | > 30 | > 30 | 0.62 | > 30 | 11 | 39 | 11 | 0.27 | > 20 | 20 | 1.2 | 83 | 100 | 20 | > 0.03 | > 33 | > 10 | > 10 | 
c1cnc2c(c1)CN[C@@H](CN(CCCCNC1CCOCC1)[C@H]1CCCc3cccnc31)C2 | 20 | > 30 | 4.3 | > 30 | > 30 | > 30 | 49 | > 50 | 0.0072 | > 20 | > 30 | 0.2 | 0.8 | 97 | 35 |  | > 17 |  |  | 
c1cnc2c(c1)CN[C@@H](CN(CCCCNC1COC1)[C@H]1CCCc3cccnc31)C2 | 21 | > 17 | 10.1 | 24 | > 30 | > 30 | 27 | 11 | 0.16 | > 20 | 8.8 | 0.7 | 30 | 97 | 41 | 0.02 | > 33 | > 10 | > 10 | 
NCCCCN(C[C@H]1Cc2cccnc2CN1)[C@H]1CCCc2cccnc21 | > 30 | 30 | 4 | 1.3 | 10 |  | 49 | 5.4 | 0.012 | 4 | 30 | 0.2 | 0.6 | 96 | 69 |  |  |  |  | 
CN(CCCCN(C[C@H]1Cc2ncccc2CN1)[C@H]1CCCc2cccnc21)C1CCOCC1 | > 30 | > 30 | 8.9 | 28 | > 30 | > 30 | 64 | > 50 | 0.11 | > 20 | 8.4 | 1.5 | 49 | 100 | 51 | 0.006 | > 33 | > 10 | > 10 | 
